Measurements taken from patent publication US4877795A, “4H-quinolizin-4-one compounds useful for the treatment of allergic bronchial asthma, allergic rhinitis atropic dermatitis and the like” (Kissei Pharmaceutical Co., Ltd., priority 1987, dated 1989).

Assays:
[1] = system: IgE; assay: Determination of Igs produced in in vitro culture: inhibition of IgE secreted by spleen cells (adoptive secondary immune response to DNP-As), ELISA; assay type: cell-based, BALB/c mice; settings: 4 days culture; for inhibition at 2.5 µg/mL / inhibition at 1 µg/mL / inhibition at 0.25 µg/mL / inhibition at 5 µg/mL / inhibition at 40 µg/mL / inhibition at 10 µg/mL: Mus musculus, 96 h; for inhibition at 2.5 µg/mL: 2.5 μg/ml; for inhibition at 1 µg/mL / Inhibition % of IgE: 1.0 μg/ml; for inhibition at 0.25 µg/mL: 0.25 μg/ml; for inhibition at 5 µg/mL: 5.0 μg/ml; for inhibition at 40 µg/mL: 40.0 μg/ml; for inhibition at 10 µg/mL: 10.0 μg/ml
Description: (§1) Determination of Igs produced in in vitro culture
(§2) BALB/c mice were immunized intraperitoneally with 5 μg of DNP-As adsorbed in 4 mg aluminum hydroxide gel. 4 weeks after the immunization, the spleens were excised from the mice and 5×10^7 spleen cells were transferred intravenously into the recipient mice which had been exposed to 600 rad of X-ray irradiation. Immediately after cell transfer, the recipients were then immunized intraperitoneally with 5 μg of DNP-As adsorbed in 4 mg aluminum hydroxide gel to induce adoptive secondary immune response. Further 4 weeks after the immunization of recipients, the spleens were excised from them and the spleen cell suspensions 5×10^6 cells/ml were cultured with or without a compound to be tested in 96-well micro plates at 37° C. for 4 days. IgE and IgG secreted into the culture supernatant was each determined correspondingly by ELISA and the inhibitory effect was calculated according to the following equation. [formula]

[2] = system: IgG; assay: Determination of Igs produced in in vitro culture: inhibition of IgG secreted by spleen cells (adoptive secondary immune response to DNP-As), ELISA; assay type: cell-based, BALB/c mice; settings: 4 days culture; for inhibition at 2.5 µg/mL / inhibition at 1 µg/mL / inhibition at 0.25 µg/mL / inhibition at 5 µg/mL / inhibition at 40 µg/mL / inhibition at 10 µg/mL: Mus musculus, 96 h; for inhibition at 2.5 µg/mL: 2.5 μg/ml; for inhibition at 1 µg/mL / Inhibition % of IgG: 1.0 μg/ml; for inhibition at 0.25 µg/mL: 0.25 μg/ml; for inhibition at 5 µg/mL: 5.0 μg/ml; for inhibition at 40 µg/mL: 40.0 μg/ml; for inhibition at 10 µg/mL: 10.0 μg/ml
Description: as §1, §2

CSc1c(C#N)c(=O)n2ccccc2c1C(=O)N1CCC(c2ccccc2)CC1 [S-78, 3-Cyano-2-methylthio-1-(4-phenylpiperidinocarbonyl)-4H-quinolizin-4-one]
inhibition at 2.5 µg/mL [1]: 60%
inhibition at 2.5 µg/mL [2]: 16%

CCCCCCN(CCCCCC)C(=O)c1c(SC)c(C#N)c(=O)n2ccccc12 [S-65, 3-Cyano-N,N-dihexyl-2-methylthio-4H-quinolizin-4-one-1-carboxamide]
inhibition at 2.5 µg/mL [1]: 87%
inhibition at 2.5 µg/mL [2]: 40%

CSc1c(C#N)c(=O)n2ccccc2c1C(=O)Nc1ccc(Nc2ccccc2)cc1 [S-74, N-(4-Anilinophenyl)-3-cyano-2-methylthio-4H-quinolizin-4-one-1-carboxamide]
inhibition at 2.5 µg/mL [1]: 51%
inhibition at 2.5 µg/mL [2]: 10%

COc1cccc(COC(=O)c2c(SC)c(C#N)c(=O)n3ccccc23)c1 [S-35, 3'-Methoxybenzyl 3-cyano-2-methylthio-4H-quinolizin-4-one-1-carboxylate]
inhibition at 1 µg/mL [1]: 64%
inhibition at 1 µg/mL [2]: 45%

CCSc1c(C#N)c(=O)n2ccccc2c1C(=O)OCCCc1ccccc1 [S-52, 3'-Phenylpropyl 3-cyano-2-ethylthio-4H-quinolizin-4-one-1-carboxylate]
inhibition at 0.25 µg/mL [1]: 46%
inhibition at 0.25 µg/mL [2]: 17%

CSc1c(C#N)c(=O)n2ccccc2c1C(=O)OC1CCCCC1C (centres unmarked) [S-17, 2'-Methylcyclohexyl 3-cyano-2-methylthio-4H-quinolizin-4-one-1-carboxylate]
inhibition at 0.25 µg/mL [1]: 43%
inhibition at 0.25 µg/mL [2]: 7%

CSc1c(C#N)c(=O)n2ccccc2c1C(=O)CC1CCN(c2ccccc2)CC1 [S-109, 3-Cyano-2-methylthio-1-(1-phenyl-4-piperidylacetyl)-4-quinolizin-4-one]
Inhibition % of IgE [1]: 77%
Inhibition % of IgG [2]: 54%

CSc1c(C#N)c(=O)n2ccccc2c1C(=O)Cc1ccc(Cl)cc1 [S-96, 1-(4-Chlrophenylacetyl)-3-cyano-2-methylthio-4H-quinolizin-4-one]
inhibition at 5 µg/mL [1]: 41%
inhibition at 5 µg/mL [2]: 12%

CSc1c(C#N)c(=O)n2ccccc2c1C(=O)OCc1ccc(Br)cc1 [S-23, 4'-Bromobenzyl 3-cyano-2-methylthio-4H-quinolizin-4-one-1-carboxylate]
inhibition at 1 µg/mL [1]: 79%
inhibition at 1 µg/mL [2]: 34%

CSc1c(C#N)c(=O)n2ccccc2c1C(=O)OC(C)c1ccccc1 (centres unmarked) [S-24, 1'-Phenylethyl 3-cyano-2-methylthio-4H-quinolizin-4-one-1-carboxylate]
inhibition at 40 µg/mL [1]: 77%
inhibition at 40 µg/mL [2]: 54%

CSc1c(C#N)c(=O)n2ccccc2c1C(=O)NC1CCCc2ccccc21 (centres unmarked) [S-76, 3-Cyano-2-methylthio-N-(1,2,3,4-tetrahydro-1-naphthyl)-4H-quinolizin-4-one-1-carboxamide]
inhibition at 2.5 µg/mL [1]: 37%
inhibition at 2.5 µg/mL [2]: 1%

CSc1c(C#N)c(=O)n2ccccc2c1C(=O)OC(C)c1ccc(C#N)cc1 (centres unmarked) [S-32, 1'-(4-Cyanophenyl)ethyl 3-cyano-2-methylthio-4H-quinolizin-4-one-1-carboxylate]
inhibition at 1 µg/mL [1]: 52%
inhibition at 1 µg/mL [2]: 28%

CSc1c(C#N)c(=O)n2ccccc2c1C(=O)Cc1cccc(C)c1 [S-97, 3-Cyano-1-(3-methylphenylacetyl)-2-methylthio-4H-quinolizin-4-one]
inhibition at 2.5 µg/mL [1]: 46%
inhibition at 2.5 µg/mL [2]: 18%

CSc1c(C#N)c(=O)n2ccccc2c1C(=O)OCc1ccccc1Cl [S-39, 2'-Chlorobenzyl 3-cyano-2-methylthio-4H-quinolizin-4-one-1-carboxylate]
inhibition at 1 µg/mL [1]: 65%
inhibition at 1 µg/mL [2]: 31%

CSc1c(C#N)c(=O)n2ccc(C)cc2c1C(=O)OCCCc1ccccc1 [S-51, 3'-Phenylpropyl 3-cyano-8methyl-2-methylthio-4H-quinolizin-4-one-1-carboxylate]
inhibition at 1 µg/mL [1]: 65%
inhibition at 1 µg/mL [2]: 43%

CSc1c(C#N)c(=O)n2ccccc2c1C(=O)OCCOc1ccc(Cl)cc1 [S-53, 2'-(4-Chorophenoxy)ethyl 3-cyano-2-methylthio-4H-quinolizin-4-one-1-carboxylate]
inhibition at 0.25 µg/mL [1]: 69%
inhibition at 0.25 µg/mL [2]: 49%

CSc1c(C#N)c(=O)n2ccccc2c1C(=O)OC1CCCc2ccccc21 (centres unmarked) [S-22, 1',2',3',4'-Tetrahydro-1'-naphthyl 3-cyano-2-methylthio-4H-quinolizin-4-one-1-carboxylate]
inhibition at 40 µg/mL [1]: 82%
inhibition at 40 µg/mL [2]: 42%

CCCOC(=O)c1c(SC)c(C#N)c(=O)n2ccccc12 [S-7, Propyl 3-cyano-2-methylthio-4H-quinolizin-4-one-1-carboxylate]
inhibition at 40 µg/mL [1]: 52%
inhibition at 40 µg/mL [2]: 24%

CSc1c(C#N)c(=O)n2ccccc2c1C(=O)N(Cc1ccccc1)C(C)C [S-68, N-Benzyl-3-cyano-N-isopropyl-2-methylthio-4H-quinolizin-4-one-1-carboxamide]
inhibition at 2.5 µg/mL [1]: 41%
inhibition at 2.5 µg/mL [2]: 7%

CSc1c(C#N)c(=O)n2ccccc2c1C(=O)N1CCN(c2ccccc2)CC1 [S-91, 3-Cyano-2-methylthio-1-(4-phenyl-1-piperadinylcarbonyl)-4H-quinolizin-4-one]
inhibition at 2.5 µg/mL [1]: 39%
inhibition at 2.5 µg/mL [2]: 11%

CSc1c(C#N)c(=O)n2ccccc2c1C(=O)OC1CCCC1 [S-12, Cyclopentyl 3-cyano-2-methylthio-4H-quinolizin-4-one-1-carboxylate]
inhibition at 5 µg/mL [1]: 65%
inhibition at 5 µg/mL [2]: 32%

CSc1c(C#N)c(=O)n2ccccc2c1C(=O)OCCCCc1ccccc1 [S-49, 4'-Phenylbutyl 3-cyano-2-methylthio-4H-quinolizin-4-one-1-carboxylate]
inhibition at 1 µg/mL [1]: 80%
inhibition at 1 µg/mL [2]: 56%

CSc1c(C#N)c(=O)n2ccccc2c1C(=O)Cc1ccc(C)cc1C [S-100, 3-Cyano-1-(2,4dimethylphenylacetyl)-2-methylthio-4H-quinolizin-4-one]
inhibition at 2.5 µg/mL [1]: 63%
inhibition at 2.5 µg/mL [2]: 34%

CSc1c(C#N)c(=O)n2ccccc2c1C(=O)Cc1ccc(C)cc1 [S-99, 3-Cyano-1-(4-methylphenylacetyl)-2-methylthio-4H-quinolizin-4-one]
inhibition at 10 µg/mL [1]: 52%
inhibition at 10 µg/mL [2]: 1%

CSc1c(C#N)c(=O)n2ccccc2c1C(=O)OCc1ccc2ccccc2c1 [S-41, 2'-Napthylmethyl 3-cyano-2-methylthio-4H-quinolizin-4-one-1-carboxylate]
inhibition at 1 µg/mL [1]: 86%
inhibition at 1 µg/mL [2]: 68%

CSc1c(C#N)c(=O)n2ccccc2c1C(=O)OCC1CCCCC1 [S-1, Cyclohexylmethyl 3-cyano-2-methylthio-4H-quinolizin-4-one-1-carboxylate]
inhibition at 5 µg/mL [1]: 65%
inhibition at 5 µg/mL [2]: 22%

CSc1c(C#N)c(=O)n2ccccc2c1C(=O)CCCc1ccccc1 [S-105, 3-Cyano-2-methylthio-1-(4-phenylbutyryl)-4H-quinolizin-4one]
inhibition at 1 µg/mL [1]: 65%
inhibition at 1 µg/mL [2]: 21%

CSc1c(C#N)c(=O)n2cccc(C)c2c1C(=O)N1CCC(c2ccccc2)CC1 (single isomer, unassigned) [S-81B, 3-Cyano-9-methyl-2methylthio-1-(4-phenylpiperidinocarbonyl)-4H-quinolizin-4-one]
Inhibition % of IgE [1]: 50%
Inhibition % of IgG [2]: 4%

COc1cc(COC(=O)c2c(SC)c(C#N)c(=O)n3ccccc23)cc(OC)c1OC [S-27, 3',4',5'-Trimethoxybenzyl 3-cyano-2-methylthio-4H-quinolizin-4-one-1-carboxylate]
inhibition at 2.5 µg/mL [1]: 56%
inhibition at 2.5 µg/mL [2]: 16%

C#CCOC(=O)c1c(SC)c(C#N)c(=O)n2ccccc12 [S-6, 2'-Propynl 3-cyano-2-methylthio-4H-quinolizin-4-one-1-carboxylate]
inhibition at 10 µg/mL [1]: 63%
inhibition at 10 µg/mL [2]: 35%

COC(=O)c1ccc(CNC(=O)c2c(SC)c(C#N)c(=O)n3ccccc23)cc1 [S-77]
inhibition at 5 µg/mL [1]: 34%
inhibition at 5 µg/mL [2]: 10%

CSc1c(C#N)c(=O)n2ccc(C)cc2c1C(=O)OC1CCCCC1 [S-18, Cyclohexyl 3-cyano-8-methyl-2-methylthio-4H-quinolizin-4-one-1-carboxylate]
inhibition at 2.5 µg/mL [1]: 54%
inhibition at 2.5 µg/mL [2]: 34%

C=CCN(C(=O)c1c(SC)c(C#N)c(=O)n2ccccc12)C1CCCCC1 [S-70, N-Allyl-3-cyano-N-cyclohexyl-2-methylthio-4H-quinolizin-4-one-1-carboxamide]
inhibition at 5 µg/mL [1]: 65%
inhibition at 5 µg/mL [2]: 32%

N#Cc1c(SCc2ccccc2)c(C(=O)N2CCC(Cc3ccccc3)CC2)c2ccccn2c1=O (single isomer, unassigned) [S-84B, 1-(4-Benzylpiperidinocarbonyl)-2-benzylthio-3-cyano-4H-quinolizin-4-one]
Inhibition % of IgE [1]: 58%
Inhibition % of IgG [2]: 32%

CSc1c(C#N)c(=O)n2ccccc2c1C(=O)N1CCCc2ccccc21 [S-88, 3-Cyano-2-methylthio-1-(1,2,3,4-tetrahydroquinolin-1-ylcarbonyl)-4H-quinolizin-4-one]
inhibition at 2.5 µg/mL [1]: 40%
inhibition at 2.5 µg/mL [2]: 7%

CSc1c(C#N)c(=O)n2ccc(C)cc2c1C(=O)OCc1ccccc1 [S-28, Benzyl 3-cyano-8-menthyl-2-methylthio-4H-quinolizin-4-one-1-carboxylate]
inhibition at 2.5 µg/mL [1]: 49%
inhibition at 2.5 µg/mL [2]: 24%

CSc1c(C#N)c(=O)n2ccccc2c1C(=O)OCCc1ccccc1 [S-48, 2'-Phenylethyl 3-cyano-2-methylthio-4H-quinolizin-4-one-1-carboxylate]
inhibition at 1 µg/mL [1]: 57%
inhibition at 1 µg/mL [2]: 15%
